This is an account of results in patent US10166225B2, “Method for treating osteoporosis” (Exelixis, Inc., priority 2011, dated 2019).

One test has as its system human osteoclasts. Description: Osteoclast activity assay (resorption index CTX/TRACP 5b). Format: cell-based. To be noted: reference inhibitor, 1_M. As to the method: In the second part, the culture medium of human osteoclasts was replaced by new medium at day 7, and the formed mature osteoclasts were cultured for an additional 3 days, allowing them to resorb bone. Compound 1 was added into the culture medium at day 7. […] C-terminal cross-linked telopeptides of type I collagen (CTX) were measured in the culture medium collected at day 10 to quantitate bone resorption during days 7-10. […] was measured at day 7 to quantitate osteoclast number before Compound 1 was added. The CTX values were divided by the […] values, resulting as a resorption index that indicates mean osteoclast activity. […] The objective of this study was to investigate the effects of Compound 1 selected by the Sponsor on differentiation and activity of human osteoclasts and mouse osteoblasts in vitro. The effects on osteoclasts were studied using a model where bone marrow-derived human osteoclast precursor cells are cultured on bovine bone slices for 7 days in conditions favouring osteoclast differentiation, and allowed to differentiate into bone-resorbing osteoclasts. After completion of osteoclast differentiation at day 7, the culture medium was removed and new culture medium favouring osteoclast activity was added into the wells. The mature osteoclasts were then cultured for an additional 3 days, allowing them to resorb bone. In the osteoclast differentiation assay, the test compounds and a reference inhibitor osteoprotegerin (OPG) were added into cultures at day 0. In the osteoclast activity assay, the test compounds and a reference inhibitor E64 were added into cultures at day 7. Seven concentrations in 8 replicates were tested in both assays. Tartrate-resistant acid phosphatase 5b activity ([…]) was measured from the culture medium collected at day 7 as an index of the number of osteoclasts formed in each well during the differentiation period. C-terminal cross-linked telopeptides of type I collagen (CTX) was measured from the culture medium collected at day 10 to quantitate bone resorption during days 7-10. A human osteoclast culture system was developed for use in this study where CD34+ osteoclast precursor cells derived from human bone marrow (Poietics® Human Osteoclast Precursors, Lonza, Walkersville, USA) are cultured on bovine bone slices in the presence of appropriate growth factors, including M-CSF and RANK-ligand ([…] et al. 2009). The cells are first allowed to differentiate into mature bone-resorbing osteoclasts, and the formed osteoclasts are then allowed to resorb bone. The test and reference compounds are added into the cell cultures at the beginning of the differentiation and/or the resorption period, and their effects on the differentiation and/or resorbing activity of osteoclasts are determined. Secreted […] is determined from the culture medium after the differentiation period using a commercially available method (BoneTRAPÒ, IDS Ltd, Boldon, UK). Secreted […] describes accurately the number of osteoclasts formed in each well during the differentiation period. CTX is determined from the culture medium after the resorption period using a commercially available method (CrossLapsÒ for cultures, IDS Ltd, Boldon, UK). CTX describes accurately the amount of bone collagen degradation products released into the culture medium in each well during the resorption period. […] In this study, human bone marrow-derived CD34+ stem cells (10000 cells/well) were suspended in culture medium and allowed to attach to bovine bone slices in 96-well tissue culture plates. The culture medium (containing 10% FBS, OCP BulletKit® Lonza, Walkersville, USA) was supplemented with appropriate amounts of important growth factors favoring osteoclast differentiation and activity, including M-CSF (33 ng/ml, OCP BulletKit® Lonza, Walkersville, USA) and RANK-ligand (66 ng/ml, OCP BulletKit® Lonza, Walkersville, USA) in 200 μl of medium. The cells were incubated in a CO2 incubator in humidified atmosphere of 95% air and 5% carbon dioxide at 37° C. […]

For test [1] the following is noted: women, subcutaneous denosumab 60 mg every 6 months; one month after injection; cited from earlier work.
The conditions of test [2]: postmenopausal women, one subcutaneous injection, dose-dependent, for as long as 6 months; cited from earlier work.

Regarding `CC(C)C[C@H](NC(=O)[C@H]1O[C@@H]1C(=O)O)C(=O)NCCCCN=C(N)N` [Compound E64, reference compound], in the test with human osteoclasts, the “effect on osteoclast activity” value is “inhibited significantly”. Take “denosumab: subcutaneous denosumab (60 mg) in the FREEDOM osteoporosis trial”: in test [1], the “serum CTx levels” value is on record as “decreased to levels below the premenopausal reference interval”. For the same compound, in test [2], the “suppression of urinary NTx” value was “up to 81%”.
